pIC50: −log10 of the molar value. Converted amounts (≈) assume the structure as drawn.
Assays:
[1] = target: T1, recombinant Pseudomonas aeruginosa LpxC (Pseudomonas aeruginosa, UniProt P47205); test: Inhibition of enzymatic activity of recombinant Pseudomonas aeruginosa LpxC in vitro; type: biochemical; details: 5 nM LpxC; substrate UDP-3-O—(R-3-hydroxydecanoyl)-GlcNAc; 25 °C, 120 minutes; fluorescamine readout
T1 construct: purchased Signalway Antibody AP74647-2
T1 sequence (P47205 1-303): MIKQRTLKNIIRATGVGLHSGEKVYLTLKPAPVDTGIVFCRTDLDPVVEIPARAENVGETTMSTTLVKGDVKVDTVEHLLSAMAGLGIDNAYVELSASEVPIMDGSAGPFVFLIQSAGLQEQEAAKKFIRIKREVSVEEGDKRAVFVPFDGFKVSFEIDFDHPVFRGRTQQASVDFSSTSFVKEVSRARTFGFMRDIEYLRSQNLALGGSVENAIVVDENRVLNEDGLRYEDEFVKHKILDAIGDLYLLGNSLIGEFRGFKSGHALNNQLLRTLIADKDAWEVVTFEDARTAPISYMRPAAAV
In short: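 LpxC (5 nM final) was incubated with compound (8-point 4-fold series, 0.61–10000 nM) and […] UDP-3-O-(R-3-hydroxydecanoyl)-GlcNAc for 120 min at 25 °C. Product was detected with fluorescamine (Ex 390/Em 495 nm) after a pH 8.0 phosphate stop. IC50 was fitted by nonlinear regression against 0.1% DMSO control.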

[2] = test system: E. coli ATCC 25922; test: Antibacterial activity, minimum inhibitory concentration (MIC) in vitro, broth dilution; type: cell-based; details: Escherichia coli, ATCC25922, 5×10^5 cfu/mL, 35 °C, 18-24 hours
In short: (§1)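 Broth microdilution per CLSI in CAMHB, inoculum 5×10^5 cfu/mL. Compound added from 100× DMSO working stocks across 11 two-fold dilutions, final 64 to 0.06 μg/mL. Incubated 18-24 h at 35 °C.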

[3] = test system: K. pneumoniae ATCC13883; test: as above; type: cell-based; details: Klebsiella pneumoniae, 5×10^5 cfu/mL, 35 °C, 18-24 hours
In short: as §1

[4] = test system: K. pneumoniae ATCC51504; test: as above; type: cell-based; details: Klebsiella pneumoniae, 5×10^5 cfu/mL, 35 °C, 18-24 hours
In short: as §1

Row | Compound | pIC50 [1] | MIC [2] | MIC [3] | MIC [4]
1 | C[C@H](O)c1nccn1Cc1cc(-c2ccc(C#CC3CC4(C3)CN(C(N)=O)C4)cc2)on1 [Example 21, (S)-6-((4-(3-((2-(1-hydroxyethyl)-1H-imidazol-1-yl)methyl)isoxazol-5-yl)phenyl)ethynyl)-2-azaspiro[3.3]heptane-2-carboxamide] | 8.29 | 2 µg/mL (≈ 4.64 µM) | 4 µg/mL (≈ 9.27 µM) | –
2 | C[C@H](O)c1nccn1Cc1cc(-c2ccc(C#CC3CC4(C3)CN(C=O)C4)cc2)on1 [Example 22, (S)-6-((4-(3-((2-(1-hydroxyethyl)-1H-imidazol-1-yl)methyl)isoxazol-5-yl)phenyl)ethynyl)-2-azaspiro[3.3]heptane-2-carbaldehyde] | 8.18 | 1 µg/mL (≈ 2.4 µM) | 4 µg/mL (≈ 9.6 µM) | –
3 | C[C@H](O)c1nccn1Cc1cc(-c2ccc(C#CC3CC4(CCN(C=O)C4)C3)cc2)on1 (stereo partly drawn) [Example 23, (S)-2-((4-(3-((2-(1-hydroxyethyl)-1H-imidazol-1-yl)methyl)isoxazol-5-yl)phenyl)ethynyl)-6-azaspiro[3.4]octane-6-carbaldehyde] | 8.20 | 2 µg/mL (≈ 4.65 µM) | 4 µg/mL (≈ 9.29 µM) | –
4 | C[C@H](O)c1nccn1Cc1cc(-c2ccc(C#CC3CC4(CCN(Cc5ccn[nH]5)CC4)C3)cc2)on1 [Example 25, (S)-1-(1-((5-(4-((7-((1H-pyrazol-5-yl)methyl)-7-azaspiro[3.5]nonan-2-yl)ethynyl)phenyl)isoxazol-3-yl)methyl)-1H-imidazol-2-yl)ethan-1-ol] | 8.14 | 2 µg/mL (≈ 4.03 µM) | 4 µg/mL (≈ 8.05 µM) | –
5 | C[C@H](O)c1nccn1Cc1cc(-c2ccc(C#CC3CC4(C3)CN(C(=O)CO)C4)cc2)on1 [Example 26, (S)-2-hydroxy-1-(6-((4-(3-((2-(1-hydroxyethyl)-1H-imidazol-1-yl)methyl)isoxazol-5-yl)phenyl)ethynyl)-2-azaspiro[3.3]heptan-2-yl)ethan-1-one] | 7.95 | 2 µg/mL (≈ 4.48 µM) | 2 µg/mL (≈ 4.48 µM) | –
6 | C[C@H](O)c1nccn1Cc1cc(-c2ccc(C#CC3CC4(CCN(Cc5ncc[nH]5)CC4)C3)cc2)on1 [Example 27, (S)-1-(1-((5-(4-((7-((1H-imidazol-2-yl)methyl)-7-azaspiro[3.5]nonan-2-yl)ethynyl)phenyl)isoxazol-3-yl)methyl)-1H-imidazol-2-yl)ethan-1-ol] | 8.22 | 2 µg/mL (≈ 4.03 µM) | 4 µg/mL (≈ 8.05 µM) | –
7 | C[C@H](O)c1nccn1Cc1cc(-c2ccc(C#CC3CC4(CCN(C(=O)CC#N)CC4)C3)cc2)on1 [Example 29, (S)-3-(2-((4-(3-((2-(1-hydroxyethyl)-1H-imidazol-1-yl)methyl)isoxazol-5-yl)phenyl)ethynyl)-7-azaspiro[3.5]nonan-7-yl)-3-oxopropanenitrile] | 8.21 | 2 µg/mL (≈ 4.14 µM) | 4 µg/mL (≈ 8.27 µM) | –
8 | C[C@H](O)c1nccn1Cc1cc(-c2ccc(C#CC3=CCN(C(=O)c4ccncc4)CC3)cc2)on1 [Example 33, (S)-(4-((4-(3-((2-(1-hydroxyethyl)-1H-imidazol-1-yl)methyl)isoxazol-5-yl)phenyl)ethynyl)-3,6-dihydropyridin-1(2H)-yl)(pyridin-4-yl)methanone] | 7.71 | 1 µg/mL (≈ 2.09 µM) | 2 µg/mL (≈ 4.17 µM) | –
9 | C[C@H](O)c1nccn1Cc1cc(-c2ccc(C#CC3=CCN(Cc4ccc(C(=O)O)cc4)CC3)cc2)on1 [Example 34, (S)-4-((4-((4-(3-((2-(1-hydroxyethyl)-1H-imidazol-1-yl)methyl)isoxazol-5-yl)phenyl)ethynyl)-3,6-dihydropyridin-1(2H)-yl)methyl)benzoic acid] | 7.57 | 2 µg/mL (≈ 3.93 µM) | 4 µg/mL (≈ 7.87 µM) | –
10 | CNC(=O)N1CC2(CC(C#Cc3ccc(-c4cc(Cn5ccnc5[C@H](C)O)no4)cc3)C2)C1 [Example 47, (S)-6-((4-(3-((2-(1-hydroxyethyl)-1H-imidazol-1-yl)methyl)isoxazol-5-yl)phenyl)ethynyl)-N-methyl-2-azaspiro[3.3]heptane-2-carboxamide] | 7.88 | 2 µg/mL (≈ 4.49 µM) | 2 µg/mL (≈ 4.49 µM) | –
11 | C[C@H](O)c1nccn1Cc1cc(-c2ccc(C#CC3CC4(C3)CN(C(=O)n3ccnc3)C4)cc2)on1 [Example 48, (S)-(6-((4-(3-((2-(1-hydroxyethyl)-1H-imidazol-1-yl)methyl)isoxazol-5-yl)phenyl)ethynyl)-2-azaspiro[3.3]heptan-2-yl)(1H-imidazol-1-yl)methanone] | 7.56 | 2 µg/mL (≈ 4.14 µM) | 2 µg/mL (≈ 4.14 µM) | –
12 | C[C@H](O)c1nccn1Cc1cc(-c2ccc(C#CC3CC4(C3)CN(C3CC(C#N)C3)C4)cc2)on1 (stereo partly drawn) [Example 49, (S)-3-(6-((4-(3-((2-(1-hydroxyethyl)-1H-imidazol-1-yl)methyl)isoxazol-5-yl)phenyl)ethynyl)-2-azaspiro[3.3]heptan-2-yl)cyclobutane-1-carbonitrile] | 7.65 | 1 µg/mL (≈ 2.14 µM) | 2 µg/mL (≈ 4.28 µM) | –
13 | C[C@H](O)c1nccn1Cc1cc(-c2ccc(C#CC3CC4(C3)CN(Cc3ncco3)C4)cc2)on1 [Example 52, (S)-1-(1-((5-(4-((2-(oxazol-2-ylmethyl)-2-azaspiro[3.3]heptan-6-yl)ethynyl)phenyl)isoxazol-3-yl)methyl)-1H-imidazol-2-yl)ethan-1-ol] | 7.86 | 1 µg/mL (≈ 2.13 µM) | 2 µg/mL (≈ 4.26 µM) | 1 µg/mL (≈ 2.13 µM)
14 | C[C@H](O)c1nccn1Cc1cc(-c2ccc(C#CC3CC4(C3)CN(CCn3cncn3)C4)cc2)on1 [Example 53, (S)-1-(1-((5-(4-((2-(2-(1H-1,2,4-triazol-1-yl)ethyl)-2-azaspiro[3.3]heptan-6-yl)ethynyl)phenyl)isoxazol-3-yl)methyl)-1H-imidazol-2-yl)ethan-1-ol] | – | 2 µg/mL (≈ 4.14 µM) | 8 µg/mL (≈ 16.5 µM) | 2 µg/mL (≈ 4.14 µM)
